Measured values from ChEMBL document CHEMBL5465560, “Selectivity Literature for EUbOPEN Chemogenomic Library” (2024).

Assays:
[1] = target: T1, Receptor-interacting serine/threonine-protein kinase 4 (Homo sapiens) (UniProt P57078); test: Selectivity interaction (KinomeScan (DiscoverX)) EUB0000229b RIPK4; details: at 10 µM
T1 sequence (whole entry): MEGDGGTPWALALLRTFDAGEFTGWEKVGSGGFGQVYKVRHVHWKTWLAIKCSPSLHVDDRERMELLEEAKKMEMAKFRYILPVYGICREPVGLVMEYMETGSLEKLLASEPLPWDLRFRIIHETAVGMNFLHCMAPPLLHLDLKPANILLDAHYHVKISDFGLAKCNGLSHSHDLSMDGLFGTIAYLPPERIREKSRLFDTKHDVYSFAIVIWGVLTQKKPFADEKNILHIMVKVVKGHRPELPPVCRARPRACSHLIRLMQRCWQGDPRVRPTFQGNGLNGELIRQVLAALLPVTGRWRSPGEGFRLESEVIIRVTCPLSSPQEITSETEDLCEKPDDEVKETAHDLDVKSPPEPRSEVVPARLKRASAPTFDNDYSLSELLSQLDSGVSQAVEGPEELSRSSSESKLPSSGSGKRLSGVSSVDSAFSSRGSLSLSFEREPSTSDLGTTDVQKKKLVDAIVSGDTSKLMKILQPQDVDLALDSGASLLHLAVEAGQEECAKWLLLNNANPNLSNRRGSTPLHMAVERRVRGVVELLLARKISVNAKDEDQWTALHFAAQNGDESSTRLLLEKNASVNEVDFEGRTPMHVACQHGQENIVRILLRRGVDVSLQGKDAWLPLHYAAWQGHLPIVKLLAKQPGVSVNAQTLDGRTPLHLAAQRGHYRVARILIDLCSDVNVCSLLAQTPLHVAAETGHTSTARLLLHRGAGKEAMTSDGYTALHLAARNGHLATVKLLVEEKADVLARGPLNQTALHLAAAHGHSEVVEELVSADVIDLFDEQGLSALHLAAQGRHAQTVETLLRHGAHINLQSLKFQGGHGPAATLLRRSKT

[2] = target: T2, Cyclin-dependent kinase 11A (Homo sapiens) (UniProt Q9UQ88); test: Selectivity interaction (KinomeScan (DiscoverX)) EUB0000045b CDK11A; details: at 1 µM
T2 sequence (whole entry): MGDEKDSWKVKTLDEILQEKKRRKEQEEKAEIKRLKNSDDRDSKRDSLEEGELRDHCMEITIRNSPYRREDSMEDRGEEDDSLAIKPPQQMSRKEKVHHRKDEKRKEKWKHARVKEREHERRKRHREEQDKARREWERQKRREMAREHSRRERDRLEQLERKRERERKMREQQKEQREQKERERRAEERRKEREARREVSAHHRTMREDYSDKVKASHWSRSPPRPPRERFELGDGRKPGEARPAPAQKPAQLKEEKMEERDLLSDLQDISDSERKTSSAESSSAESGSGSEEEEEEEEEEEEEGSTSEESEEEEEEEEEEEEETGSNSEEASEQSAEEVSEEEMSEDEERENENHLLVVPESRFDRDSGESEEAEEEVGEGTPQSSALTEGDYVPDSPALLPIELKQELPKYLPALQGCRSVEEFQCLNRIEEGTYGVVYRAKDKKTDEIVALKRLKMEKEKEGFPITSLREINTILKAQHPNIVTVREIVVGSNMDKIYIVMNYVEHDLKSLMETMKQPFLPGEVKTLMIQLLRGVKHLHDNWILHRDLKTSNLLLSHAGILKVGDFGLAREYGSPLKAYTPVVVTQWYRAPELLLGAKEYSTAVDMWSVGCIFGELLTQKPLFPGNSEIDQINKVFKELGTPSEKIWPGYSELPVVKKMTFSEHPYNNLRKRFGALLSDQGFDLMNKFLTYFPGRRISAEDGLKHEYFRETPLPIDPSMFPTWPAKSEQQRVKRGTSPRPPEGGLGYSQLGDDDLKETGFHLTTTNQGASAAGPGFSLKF

[3] = target: T3, Serine/threonine-protein kinase ICK (Homo sapiens) (UniProt Q9UPZ9); test: Selectivity interaction (KinomeScan (DiscoverX)) EUB0001079a ICK; details: at 1 µM
T3 sequence (whole entry): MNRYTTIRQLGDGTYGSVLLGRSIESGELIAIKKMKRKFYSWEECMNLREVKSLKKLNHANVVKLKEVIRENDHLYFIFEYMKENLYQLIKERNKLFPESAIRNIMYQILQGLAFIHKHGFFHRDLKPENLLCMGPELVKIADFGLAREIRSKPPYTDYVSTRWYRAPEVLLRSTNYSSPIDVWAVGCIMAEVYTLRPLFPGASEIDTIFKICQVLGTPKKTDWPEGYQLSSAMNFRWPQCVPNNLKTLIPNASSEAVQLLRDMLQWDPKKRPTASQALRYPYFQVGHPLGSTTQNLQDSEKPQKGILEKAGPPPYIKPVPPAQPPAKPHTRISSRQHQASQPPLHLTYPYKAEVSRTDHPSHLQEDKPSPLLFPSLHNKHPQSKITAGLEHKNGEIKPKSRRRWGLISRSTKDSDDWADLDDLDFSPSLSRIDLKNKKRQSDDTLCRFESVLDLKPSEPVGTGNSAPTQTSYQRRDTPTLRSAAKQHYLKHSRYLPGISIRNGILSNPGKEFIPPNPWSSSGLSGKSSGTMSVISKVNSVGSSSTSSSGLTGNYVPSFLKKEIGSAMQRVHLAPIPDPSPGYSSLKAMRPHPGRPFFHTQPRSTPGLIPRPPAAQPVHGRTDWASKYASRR

COc1cc(N(C)c2ccnc3ccc(C(F)(F)F)cc23)cc(OC)c1OC
% binding [1]: 68%

C=CC(=O)Nc1cc(-n2c(=O)ccc3cnc4ccc(-c5ccc(NS(C)(=O)=O)cc5)cc4c32)ccc1C
% of control [2]: 100%

Nc1cnc(N2CCc3cc(S(=O)(=O)Nc4c(F)cc(Cl)cc4F)cc(N4CCCC4=O)c32)nc1 [TP-020n]
% of control [3]: 80%
